# Data published in the supplement of paper PMC10307832.
# Legend:
# Assay in all cases: relative viability (nuclei count vs DMSO), 5 days (fraction); higher = more cells survive
# [1] = compound: CC(O)(CS(=O)(=O)c1ccc(F)cc1)C(=O)Nc1ccc(C#N)c(C(F)(F)F)c1 [Bicalutamide] + Cc1cc(Nc2cc(N3CCN(C)CC3)nc(Sc3ccc(NC(=O)C4CC4)cc3)n2)n[nH]1 [Tozasertib] (partner 0.1 µM)
# Summary of the method: (§1)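 Nuclei were stained with Hoechst during a one-step fixation (final 0.05% Triton X-100, 1% formaldehyde, 1 ug/ml Hoechst) carried out 5 days after dosing, then counted on 4× images. The cells, lung cancer lines in 1536-well plates, had been dosed by pin tool the day after seeding with one drug alone or a fixed anchor-drug dose plus five library-drug doses (not always all listed) in √10 steps. Relative viability is the nuclei count in treated wells divided by that in vehicle wells, and each value is the median of duplicate plates.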
# [2] = compound: C(C(=O)C(=O)O)Br [Bromopyruvate] + O=C(CCCCCCC(=O)Nc1ccccc1)NO [Vorinostat] (partner 1 µM)
# Summary of the method: as §1
# [3] = compound: CC(O)(CS(=O)(=O)c1ccc(F)cc1)C(=O)Nc1ccc(C#N)c(C(F)(F)F)c1 [Bicalutamide] + O=C(c1cc(Cc2n[nH]c(=O)c3ccccc23)ccc1F)N1CCN(C(=O)C2CC2)CC1 [Olaparib] (partner 8 µM)
# Summary of the method: as §1
# [4] = compound: CC(O)(CS(=O)(=O)c1ccc(F)cc1)C(=O)Nc1ccc(C#N)c(C(F)(F)F)c1 [Bicalutamide] + CCNC(=O)c1noc(-c2cc(C(C)C)c(O)cc2O)c1-c1ccc(CN2CCOCC2)cc1 [Luminespib] (partner 0.01 µM)
# Summary of the method: as §1
Cell Line,relative viability ([1]; first compound 0.08 µM),relative viability ([1]; first compound 0.253 µM),relative viability ([1]; first compound 0.8 µM),relative viability ([1]; first compound 2.53 µM),relative viability ([2]; first compound 1 µM),relative viability ([2]; first compound 3.162 µM),relative viability ([2]; first compound 10 µM),relative viability ([2]; first compound 31.62 µM),relative viability ([2]; first compound 100 µM),relative viability ([3]; first compound 0.08 µM),relative viability ([3]; first compound 0.253 µM),relative viability ([3]; first compound 0.8 µM),relative viability ([3]; first compound 2.53 µM),relative viability ([4]; first compound 0.08 µM),relative viability ([4]; first compound 0.253 µM),relative viability ([4]; first compound 0.8 µM),relative viability ([4]; first compound 2.53 µM)
NCI-H522,0.552,0.627,0.597,0.543,0.93,1.02,1.02,0.799,0.763,0.711,0.599,0.788,0.693,1.07,1.14,1.45,1.17
HCC-15,0.428,0.394,0.365,0.228,0.792,0.838,0.782,0.818,0.686,0.77,0.685,0.769,0.657,0.445,0.294,0.57,0.62
A-427,0.232,0.183,0.209,0.165,0.87,0.899,0.841,0.767,0.835,0.704,0.692,0.842,0.707,1.02,0.761,1,0.763
NCI-H23,0.371,0.322,0.375,0.374,0.569,0.639,0.64,0.538,0.39,0.342,0.3,0.323,0.341,0.223,0.195,0.171,0.212
NCI-H1734,0.249,0.244,0.268,0.279,0.762,0.86,0.858,0.736,0.724,0.623,0.546,0.685,0.606,0.193,0.174,0.212,0.186
NCI-H1993,0.567,0.581,0.727,0.629,0.19,0.862,0.83,0.72,0.842,1.05,0.785,1.17,1.01,0.835,0.894,1.07,0.999
PC-3 [JPC-3],0.926,0.903,0.952,0.893,1.1,,0.536,,0.764,1.22,1.09,1.16,1.24,0.665,0.659,0.667,0.734
NCI-H1915,0.434,0.447,0.491,0.381,0.5,0.495,0.529,0.462,0.423,0.25,0.232,0.29,0.254,0.761,0.69,0.934,0.762
NCI-H1666,0.6,0.562,0.625,0.597,1.01,0.978,1.08,0.931,0.858,0.733,0.814,0.728,0.744,1.04,0.989,1.03,0.961
HCC-366,0.133,0.0841,0.0976,0.0526,0.375,0.368,0.408,0.307,0.227,0.361,0.323,0.444,0.286,,,,
SK-MES-1,1.08,0.853,0.867,0.66,1.08,1.2,1.04,0.94,0.965,0.825,0.711,0.773,0.561,0.609,0.736,0.97,0.709
NCI-H727,0.615,0.619,0.591,0.603,1.28,1.26,1.24,0.886,1.23,0.895,0.678,0.614,0.732,0.366,,0.378,0.339
RERF-LC-KJ,0.48,0.521,0.494,0.338,0.707,0.655,0.673,0.626,0.516,0.979,1.04,0.962,0.768,1.24,1.2,1.36,1.2
NCI-H1623,,0.445,0.471,0.463,,,,,,,,,,,0.647,0.596,0.459
Calu-6,,,,,,,,,,0.667,0.52,0.586,0.604,,,,
LC-2-ad,0.465,0.429,0.552,0.505,0.706,0.631,0.72,0.645,0.575,0.758,0.713,0.683,0.697,1.1,0.954,1.03,1.06
CAL-12T,0.267,0.332,0.324,0.373,0.696,0.769,0.762,0.705,0.489,0.753,0.711,0.769,0.63,0.707,0.38,0.712,0.454
